This test addresses T1, P2Y6 receptor (Homo sapiens, UniProt Q15077).
T1 construct: expressed in transfected cells; host or cells: 1321N1 human astrocytoma cells
The test can be described thus: Activation of P2Y6 receptor: receptor-induced Ca2+ changes measured with fluo-4. The test is classed as cell-based. As to conditions: sodium salts of the test compounds; 1321N1 human astrocytoma cells expressing P2Y6; fluo-4 Ca2+ fluorescence; nonlinear curve fit; read-out: EC50 of synthetic compounds for activation of P2Y6 receptor. Here is the method: Synthetic compounds were tested for activation of P2Y6 receptor by measuring receptor induced Ca^2+ changes with the fluorescent Ca^2+ indicator fluo-4. 1321N1 human astrocytoma cell lines either expressing P2Y2, P2Y4 or P2Y6. Receptors were plated into 24-well plates. Two days after plating, fluorometric measurements were made and responses of cells to a serial dilution of the sodium salts of the test compounds were determined. P2Y6 receptor mediated Ca^2+ fluorescent change was determined by normalized accumulation of fluorescent change of 3 timepoints after compound administration subtracted by value from ACSF control. Changes in fluorescent intensity were plotted corresponding to compound concentration in GraphPad.

T1 sequence (Q15077 whole entry): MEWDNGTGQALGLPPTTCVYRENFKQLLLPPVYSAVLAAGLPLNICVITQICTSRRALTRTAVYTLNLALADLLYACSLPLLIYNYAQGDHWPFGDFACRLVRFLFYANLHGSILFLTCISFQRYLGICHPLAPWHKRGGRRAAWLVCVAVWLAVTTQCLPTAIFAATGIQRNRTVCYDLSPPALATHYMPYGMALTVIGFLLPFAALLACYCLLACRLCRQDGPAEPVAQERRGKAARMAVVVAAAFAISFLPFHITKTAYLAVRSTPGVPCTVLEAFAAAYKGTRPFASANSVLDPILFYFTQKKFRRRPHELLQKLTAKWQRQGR

In the case of `O=c1ccn([C@@H]2O[C@H](COP(=O)(O)OP(=O)(O)O)C(O)C2O)c(=O)n1Cc1ccc(-c2ccccc2)cn1` (stereo partly drawn) [Compound 29], the EC50 (as a rule, the concentration giving half of the maximal effect) was less than 0.5 µM.

Consider `O=c1ccn([C@@H]2O[C@H](COP(=O)(O)OP(=O)(O)O)C(O)C2O)c(=O)n1Cc1ncc(-c2ccccc2)s1` (stereo partly drawn) [Compound 43], for which the EC50 was less than 0.5 µM. Take `O=c1ccn([C@@H]2O[C@H](COP(=O)(O)OP(=O)(O)O)C(O)C2O)c(=O)n1Cc1cc(C2CCCC2)ccn1` (stereo partly drawn) [Compound 38]: the concentration giving a half-maximal response (EC50) fell in the range of 0.5 to 1 µM. Take `O=c1ccn([C@@H]2O[C@H](COP(=O)(O)OP(=O)(O)O)C(O)C2O)c(=O)n1Cc1cnc(-c2ccccc2)o1` (stereo partly drawn) [Compound 46]: the half-maximal effective concentration (EC50) was in the range of 0.5 to 1 µM. The figure for `O=c1ccn([C@@H]2O[C@H](COP(=O)(O)OP(=O)(O)O)C(O)C2O)c(=O)n1Cc1ncccc1-c1ccccc1` (stereo partly drawn) [Compound 31] is more than 2 µM; for `O=c1ccn([C@@H]2O[C@H](COP(=O)(O)OP(=O)(O)O)C(O)C2O)c(=O)n1Cc1cc(-c2ccncc2)ccn1` (stereo partly drawn) [Compound 32] it is 1 to 2 µM; for `O=c1ccn([C@@H]2O[C@H](COP(=O)(O)OP(=O)(O)O)C(O)C2O)c(=O)n1Cc1cc(Cc2ccccc2)ccn1` (stereo partly drawn) [Compound 35] it is less than 0.5 µM. As for `O=c1ccn([C@@H]2O[C@H](COP(=O)(O)OP(=O)(O)O)C(O)C2O)c(=O)n1Cc1cc(Nc2ccccc2)ccn1` (stereo partly drawn) [Compound 37], the EC50 was 0.5 to 1 µM. Consider `O=c1ccn([C@@H]2O[C@H](COP(=O)(O)OP(=O)(O)O)C(O)C2O)c(=O)n1Cc1ccc(-c2ccccc2)o1` (stereo partly drawn) [Compound 47], for which the EC50 was less than 0.5 µM.

As to `O=c1ccn([C@@H]2O[C@H](COP(=O)(O)OP(=O)(O)O)C(O)C2O)c(=O)n1Cc1cccc(-c2ccccc2)n1` (stereo partly drawn) [Compound 30], the EC50 lay in the range of 1 to 2 µM. On to `O=c1ccn([C@@H]2O[C@H](COP(=O)(O)OP(=O)(O)O)C(O)C2O)c(=O)n1Cc1cc(N2CCCCC2)ccn1` (stereo partly drawn) [Compound 40], for which the EC50 was more than 2 µM. `O=c1ccn([C@@H]2O[C@H](COP(=O)(O)OP(=O)(O)O)C(O)C2O)c(=O)n1Cc1cc(-c2ccccn2)ccn1` (stereo partly drawn) [Compound 34]: the EC50 is 0.5 to 1 µM.

For `O=c1ccn([C@@H]2O[C@H](COP(=O)(O)OP(=O)(O)O)C(O)C2O)c(=O)n1Cc1cc(Oc2ccccc2)ccn1` (stereo partly drawn) [Compound 36], the half-maximal effective concentration (EC50) was less than 0.5 µM. With `O=c1ccn([C@@H]2O[C@H](COP(=O)(O)OP(=O)(O)O)C(O)C2O)c(=O)n1Cc1ccc(-c2ccccc2)s1` (stereo partly drawn) [Compound 42], the EC50 is less than 0.5 µM. In the case of `O=c1ccn([C@@H]2O[C@H](COP(=O)(O)OP(=O)(O)O)C(O)C2O)c(=O)n1Cc1ncc(-c2ccccc2)o1` (stereo partly drawn) [Compound 45] it was less than 0.5 µM. Take `O=c1ccn([C@@H]2O[C@H](COP(=O)(O)OP(=O)(O)O)C(O)C2O)c(=O)n1Cc1cc(C2CCCCC2)ccn1` (stereo partly drawn) [Compound 39]: the EC50 was in the range of 0.5 to 1 µM. Consider `O=c1ccn([C@@H]2O[C@H](COP(=O)(O)OP(=O)(O)O)C(O)C2O)c(=O)n1Cc1cccc(-c2ccccc2)c1` (stereo partly drawn) [Compound 41], for which the concentration for a half-maximal effect (EC50) is less than 0.5 µM. In the case of `O=c1ccn([C@@H]2O[C@H](COP(=O)(O)OP(=O)(O)O)C(O)C2O)c(=O)n1Cc1cnc(-c2ccccc2)s1` (stereo partly drawn) [Compound 44] it was 1 to 2 µM.

The record behind these values is US20200040025A1, “URIDINE NUCLEOSIDE DERIVATIVES, COMPOSITIONS AND METHODS OF USE” (Tufts University, priority 2016, published 2020).
